Source: patent US20170042193A1, “Pet Food Compositions Having Antimicrobial Activity” (priority 2010, published 2017)
Like-named read-outs stand apart in the source and are kept apart here.

Experiments:
Assay type in all cases: cell-based
[1] = system: Salmonella (S. aarhus, S. muenster E1 and S. worthington); design: key to Salmonella growth or inhibition (MIC test): −: negative sign means inhibition; +: positive sign denotes growth
Procedure: The minimum inhibitory concentration (MIC) of an antimicrobial ingredient is defined as the maximum dilution of the product that will still inhibit the growth of Salmonella. Serial dilutions (0-3%, except for oregano 0-0.3%) were made of the AMI in bacterial growth media and poured in test tubes. The test organisms (S. aarhus, S. muenster E1 and S. worthington) were then added to the dilutions of the AMI ingredients to a final concentration of 10^6 or 10^3 cfu/g, incubated overnight at 30° C., and scored for growth by turbidity or plate counts.
Minimum Inhibitory Concentration was conducted for 10^3 and 10^6 cfu/g Salmonella. Results reported as negative sign means inhibition, while positive sign denotes growth.

[2] = system: Salmonella (S. aarhus, S. muenster E1 & S. worthington); details: for Zone of Inhibition-Diameter, Mean / Zone of Inhibition-Diameter, REP I Plate 1 / Zone of Inhibition-Diameter, REP I Plate 2 / Zone of Inhibition-Diameter, REP II Plate 1 / Zone of Inhibition-Diameter, REP II Plate 2 / Zone of Inhibition-Diameter, REP III Plate 1 / Zone of Inhibition-Diameter, REP III Plate 2: kibble coated
Procedure: The kibble diffusion test has similar principles as the disk diffusion method. […] […] Efficacy of the AMI was validated by measuring how closely the Salmonella cultures grew with respect to the saturated kibbles.
Commercial canine and feline adult pet food compositions in the form of kibbles were coated with potential AMIs. […] After incubation overnight at 30° C., plates were analyzed for presence of clear zones around the kibbles.

[3] = system: Salmonella; experiment: Scale up challenge testing of canine kibble with Propionic Acid at simulated process steps
From the text: Canine adult pet food compositions with Propionic Acid were produced. Samples were taken to simulate different steps of the process. […] Moisture target was about 20%. 2) The dryer temperature was reduced and belt speed increased. […] Moisture target was about 15%. […] Moisture target was about 8%.
Kibble with intermediate moisture (15% and 20%) was cooled to prevent condensation in the bag and not encourage mold growth.
Extruder, dryer, uncoated base and finished product samples (10 kg each) were inoculated with Salmonella 10^6 cfu/g.
Uncoated base samples were coated with topicals (palatants and fat) after inoculation (Table 10).
Samples were split and incubated in a 30, 50 or 70° C. incubator.
Samples at 70° C. were plated after 0, 15, 30 and 60 minutes.
Samples at 50° C. were plated after 0, 30, 60 and 240 minutes.
Samples at 30° C. were plated after 0, 1, 2, 3, 8 and 15 days.

[4] = 10^3 cfu/g Salmonella, antimicrobial level 0.03%
[5] = 10^3 cfu/g Salmonella, antimicrobial level 0.15%
[6] = 10^3 cfu/g Salmonella, antimicrobial level 0.3%
[7] = 10^3 cfu/g Salmonella, antimicrobial level 0.9%
[8] = 10^3 cfu/g Salmonella, antimicrobial level 1.5%
[9] = 10^3 cfu/g Salmonella, antimicrobial level 2.1%
[10] = 10^3 cfu/g Salmonella, antimicrobial level 3%
[11] = 10^3 cfu/g Salmonella, antimicrobial level […]
[12] = 10^6 cfu/g Salmonella, antimicrobial level 0.03%
[13] = 10^6 cfu/g Salmonella, antimicrobial level 0.15%
[14] = 10^6 cfu/g Salmonella, antimicrobial level 0.3%
[15] = 10^6 cfu/g Salmonella, antimicrobial level 0.9%
[16] = 10^6 cfu/g Salmonella, antimicrobial level 1.5%
[17] = 10^6 cfu/g Salmonella, antimicrobial level 2.1%
[18] = 10^6 cfu/g Salmonella, antimicrobial level 3%
[19] = 10^6 cfu/g Salmonella, antimicrobial level […]

CCCCCCCCCCCC(=O)N[C@@H](CCCN=C(N)N)C(=O)OCC [Lauric Arginate]
MIC needed to inhibit Salmonella ([1]; 10^3 and 10^6 cfu/g Salmonella): 0.15% | Salmonella growth or inhibition (MIC test) [1, 4]: − | Salmonella growth or inhibition (MIC test) [1, 5]: − | Salmonella growth or inhibition (MIC test) [1, 6]: − | Salmonella growth or inhibition (MIC test) [1, 7]: − | Salmonella growth or inhibition (MIC test) [1, 8]: − | Salmonella growth or inhibition (MIC test) [1, 9]: − | Salmonella growth or inhibition (MIC test) [1, 10]: − | Salmonella growth or inhibition (MIC test) [1, 11]: − | Salmonella growth or inhibition (MIC test) [1, 12]: − | Salmonella growth or inhibition (MIC test) [1, 13]: − | Salmonella growth or inhibition (MIC test) [1, 14]: − | Salmonella growth or inhibition (MIC test) [1, 15]: − | Salmonella growth or inhibition (MIC test) [1, 16]: − | Salmonella growth or inhibition (MIC test) [1, 17]: − | Salmonella growth or inhibition (MIC test) [1, 18]: − | Salmonella growth or inhibition (MIC test) [1, 19]: −

CCC(=O)O [Propionic Acid]
inhibition of Salmonella, clear zone around the kibbles ([2]; coated kibbles, overnight at 30° C.): inhibited Salmonella | Zone of Inhibition-Diameter, Mean ([2]; 0.65%): 9 mm | Zone of Inhibition-Diameter, REP I Plate 1 ([2]; 0.65%): 8 mm | Zone of Inhibition-Diameter, REP I Plate 2 ([2]; 0.65%): 10 mm | Zone of Inhibition-Diameter, REP II Plate 1 ([2]; 0.65%): 5 mm | Zone of Inhibition-Diameter, REP II Plate 2 ([2]; 0.65%): 10 mm | Zone of Inhibition-Diameter, REP III Plate 1 ([2]; 0.65%): 13 mm | Zone of Inhibition-Diameter, REP III Plate 2 ([2]; 0.65%): 5 mm | Zone of Inhibition-Diameter, Mean ([2]; 2%): 40 mm | Zone of Inhibition-Diameter, REP I Plate 1 ([2]; 2%): 47 mm | Zone of Inhibition-Diameter, REP I Plate 2 ([2]; 2%): 49 mm | Zone of Inhibition-Diameter, REP II Plate 1 ([2]; 2%): 47 mm | Zone of Inhibition-Diameter, REP II Plate 2 ([2]; 2%): 43 mm | Zone of Inhibition-Diameter, REP III Plate 1 ([2]; 2%): 30 mm | Zone of Inhibition-Diameter, REP III Plate 2 ([2]; 2%): 25 mm | Zone of Inhibition-Diameter, Mean ([2]; 3%): 31 mm | Zone of Inhibition-Diameter, REP I Plate 1 ([2]; 3%): 30 mm | Zone of Inhibition-Diameter, REP I Plate 2 ([2]; 3%): 28 mm | Zone of Inhibition-Diameter, REP II Plate 1 ([2]; 3%): 31 mm | Zone of Inhibition-Diameter, REP II Plate 2 ([2]; 3%): 34 mm | Zone of Inhibition-Diameter, REP III Plate 1 ([2]; 3%): 33 mm | Zone of Inhibition-Diameter, REP III Plate 2 ([2]; 3%): 30 mm | Zone of Inhibition-Diameter, Mean ([2]; 3% (in CWG)): 31 mm | Zone of Inhibition-Diameter, REP I Plate 1 ([2]; 3% (in CWG)): 34 mm | Zone of Inhibition-Diameter, REP I Plate 2 ([2]; 3% (in CWG)): 34 mm | Zone of Inhibition-Diameter, REP II Plate 1 ([2]; 3% (in CWG)): 28 mm | Zone of Inhibition-Diameter, REP II Plate 2 ([2]; 3% (in CWG)): 31 mm | Zone of Inhibition-Diameter, REP III Plate 1 ([2]; 3% (in CWG)): 28 mm | Zone of Inhibition-Diameter, REP III Plate 2 ([2]; 3% (in CWG)): 31 mm | Zone of Inhibition-Diameter, Mean ([2]; […]): 21 mm | Zone of Inhibition-Diameter, REP I Plate 1 ([2]; […]): 25 mm | Zone of Inhibition-Diameter, REP I Plate 2 ([2]; […]): 18 mm | Zone of Inhibition-Diameter, REP II Plate 1 ([2]; […]): 25 mm | Zone of Inhibition-Diameter, REP II Plate 2 ([2]; […]): 25 mm | Zone of Inhibition-Diameter, REP III Plate 1 ([2]; […]): 13 mm | Zone of Inhibition-Diameter, REP III Plate 2 ([2]; […]): 20 mm | reduction of Salmonella compared with untreated control ([3]; 1, 2 and 3% topically applied): reduced Salmonella by two log cycles more than an untreated control | reduction of Salmonella compared with untreated control ([3]; 2 and 3% topical/preconditioner): reduced Salmonella by two log cycles more than an untreated control | reduction of Salmonella compared with untreated control ([3]; 3% in preconditioner): reduced Salmonella by two log cycles more than an untreated control | efficacy against Salmonella at points of processing ([3]; concentrations of 1%, 2%, and 3%): efficacious against Salmonella at all points of processing | effect on Salmonella ([3]; finished product contaminated after enrober, 2% and 3% added topical/preconditioner): positive effect | effect on Salmonella ([3]; finished product contaminated after enrober, topical application of 1%, 2% and 3%): positive effect | effect on Salmonella ([3]; product coated and inoculated (finished product contaminated after enrober), 3% in the preconditioner): some immediate effect | reduction of Salmonella compared with control ([3]; product simulating entry to the airlift, evaporative cooling, dryer after surface cooling, 1%, 2%, and 3%): Reduction of two logs more than control | Salmonella growth or inhibition (MIC test) [1, 4]: + | Salmonella growth or inhibition (MIC test) [1, 5]: + | Salmonella growth or inhibition (MIC test) [1, 6]: + | Salmonella growth or inhibition (MIC test) [1, 7]: − | Salmonella growth or inhibition (MIC test) [1, 8]: − | Salmonella growth or inhibition (MIC test) [1, 9]: − | Salmonella growth or inhibition (MIC test) [1, 10]: − | Salmonella growth or inhibition (MIC test) [1, 11]: − | Salmonella growth or inhibition (MIC test) [1, 12]: + | Salmonella growth or inhibition (MIC test) [1, 13]: + | Salmonella growth or inhibition (MIC test) [1, 14]: − | Salmonella growth or inhibition (MIC test) [1, 15]: − | Salmonella growth or inhibition (MIC test) [1, 16]: − | Salmonella growth or inhibition (MIC test) [1, 17]: − | Salmonella growth or inhibition (MIC test) [1, 18]: − | Salmonella growth or inhibition (MIC test) [1, 19]: −
